US11753407B2, “Compounds for treating spinal muscular atrophy” (PTC Therapeutics, Inc., priority 2012, dated 2023)

Experiments:
[1] = test system: SMN2 minigene mRNA (SMN2-A minigene) in HEK293H cells; experiment: SMN2 minigene mRNA splicing RT-qPCR assay in cultured cells; type: cell-based, human; conditions: Homo sapiens, HEK293-H; concentration increasing full length SMN2 mRNA 1.5-fold relative to vehicle-treated cells; HEK293H cells with SMN2-A minigene, 24 hours, 7-point concentration data; read-out: EC1.5x for production of full length SMN2 mRNA
In short: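 HEK293H cells stably carrying the SMN2-A minigene were treated for 24 h at 37 °C with a 7-point, 3.16-fold dilution series of compound. Multiplex RT-qPCR measured exon 7-containing minigene FL mRNA against GAPDH, expressed relative to vehicle by modified ΔΔCt; the EC1.5× is the concentration giving a 1.5-fold increase.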

[2] = test system: Smn protein in SMA patient fibroblast cells (GM03813); experiment: Smn protein assay in cultured cells (SMN HTRF); type: cell-based, human; conditions: SMA patient fibroblast cells, 48 hours; for EC1.5x for Smn protein expression: 7-point concentration curve, SMN HTRF, concentration producing 1.5 times Smn protein vs DMSO vehicle control; for maximum fold (Fold) increase of Smn protein: 7-point concentration data, fold relative to vehicle control
In short: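 SMA patient fibroblasts (5,000 cells/well, DMEM-10% FBS) were treated for 48 h at 37 °C with a 7-point, 3.16-fold dilution series in triplicate. RIPA lysates were probed by HTRF (anti-SMN d2/kryptate, overnight, room temperature), reading 665/620 nm. EC1.5× is the concentration giving 1.5-fold Smn over DMSO vehicle.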

| Compound | melting point | EC (1.5-fold increase) [1] | EC1.5x for Smn protein expression [2] | maximum fold (Fold) increase of Smn protein [2] |
| --- | --- | --- | --- | --- |
| Cc1cn2cc(-c3cc(=O)n4cc(N5CCN(C(C)C)[C@H](C)C5)ccc4n3)cc2c(C)n1 [Compound 730, 2-(1,3-dimethylpyrrolo[1,2-a]pyrazin-7-yl)-7-[(3R)-3-methyl-4-(propan-2-yl)piperazin-1-yl]-4H-pyrido[1,2-a]pyrimidin-4-one] | 249 to 251 °C | < 0.1 µM | **** (an EC1.5x≤0.3 μM is indicated by four stars (****)) | ***** (a fold increase >1.65 is indicated by five stars (*****)) |
| Cc1cn2cc(-c3cc(=O)n4cc(N5CCC(C)(N)CC5)ccc4n3)cc2c(C)n1 [Compound 731, 7-(4-amino-4-methylpiperidin-1-yl)-2-(1,3-dimethylpyrrolo[1,2-a]pyrazin-7-yl)-4H-pyrido[1,2-a]pyrimidin-4-one] | 244 to 246 °C | < 0.1 µM | **** (an EC1.5x≤0.3 μM is indicated by four stars (****)) | ***** (a fold increase >1.65 is indicated by five stars (*****)) |
| CC[C@H]1CN(c2cc(C)c3nc(-c4cc5c(C)nc(C)cn5n4)cc(=O)n3c2)CCN1 [Compound 732, 2-(4,6-dimethylpyrazolo[1,5-a]pyrazin-2-yl)-7-[(3S)-3-ethylpiperazin-1-yl]-9-methyl-4H-pyrido[1,2-a]pyrimidin-4-one] | 243 to 251 °C | 0.3 to 1 µM | *** (an EC1.5× between >0.3 μM and ≤1 μM is indicated by three stars (***)) | **** (a fold increase between >1.5 and ≤1.65 is indicated by four stars (****)) |
| Cc1cn2cc(-c3cc(=O)n4cc(N5CCNCC5)ccc4n3)cc(C(F)(F)F)c2n1 [Compound 733, 2-[2-methyl-8-(trifluoromethyl)imidazo[1,2-a]pyridin-6-yl]-7-(piperazin-1-yl)-4H-pyrido[1,2-a]pyrimidin-4-one] | 325 to 328 °C | < 0.1 µM | **** (an EC1.5x≤0.3 μM is indicated by four stars (****)) | ***** (a fold increase >1.65 is indicated by five stars (*****)) |
| Cc1cn2cc(-c3cc(=O)n4cc(N5CCN[C@H](C)C5)ccc4n3)cc(C(F)(F)F)c2n1 [Compound 734, 7-[(3R)-3-methylpiperazin-1-yl]-2-[2-methyl-8-(trifluoromethyl)imidazo[1,2-a]pyridin-6-yl]-4H-pyrido[1,2-a]pyrimidin-4-one] | 303 to 306 °C | < 0.1 µM | **** (an EC1.5x≤0.3 μM is indicated by four stars (****)) | ***** (a fold increase >1.65 is indicated by five stars (*****)) |
| Cc1cn2cc(-c3cc(=O)n4cc(N5CCN[C@@H](C)C5)ccc4n3)cc(C(F)(F)F)c2n1 [Compound 735, 7-[(3S)-3-methylpiperazin-1-yl]-2-[2-methyl-8-(trifluoromethyl)imidazo[1,2-a]pyridin-6-yl]-4H-pyrido[1,2-a]pyrimidin-4-one] | > 320 °C | < 0.1 µM | **** (an EC1.5x≤0.3 μM is indicated by four stars (****)) | **** (a fold increase between >1.5 and ≤1.65 is indicated by four stars (****)) |
| Cc1cn2cc(-c3cc(=O)n4cc(N5C[C@@H](C)N[C@@H](C)C5)ccc4n3)cc(C(F)(F)F)c2n1 [Compound 736, 7-[(3R,5S)-3,5-dimethylpiperazin-1-yl]-2-[2-methyl-8-(trifluoromethyl)imidazo[1,2-a]pyridin-6-yl]-4H-pyrido[1,2-a]pyrimidin-4-one] | 293 to 296 °C | < 0.1 µM | **** (an EC1.5x≤0.3 μM is indicated by four stars (****)) | ***** (a fold increase >1.65 is indicated by five stars (*****)) |
| Cc1cn2cc(-c3cc(=O)n4cc(C5=CCNCC5)ccc4n3)cc2c(C)n1 [Compound 743, 2-(1,3-dimethylpyrrolo[1,2-a]pyrazin-7-yl)-7-(1,2,3,6-tetrahydropyridin-4-yl)-4H-pyrido[1,2-a]pyrimidin-4-one] | 189 to 191 °C | < 0.1 µM | **** (an EC1.5x≤0.3 μM is indicated by four stars (****)) | ***** (a fold increase >1.65 is indicated by five stars (*****)) |

More lines, main results first:

| melting point | Compound | EC (1.5-fold increase) [1] | EC1.5x for Smn protein expression [2] | maximum fold (Fold) increase of Smn protein [2] |
| --- | --- | --- | --- | --- |
| 216 to 218 °C | CCc1nc(C)cn2nc(-c3cc(=O)n4cc(N5CCC(C)(N)CC5)ccc4n3)cc12 [Compound 737, 7-(4-amino-4-methylpiperidin-1-yl)-2-(4-ethyl-6-methylpyrazolo[1,5-a]pyrazin-2-yl)-4H-pyrido[1,2-a]pyrimidin-4-one] | < 0.1 µM | **** (an EC1.5x≤0.3 μM is indicated by four stars (****)) | ***** (a fold increase >1.65 is indicated by five stars (*****)) |
| 194 to 196 °C | Cc1cc(-c2cc(=O)n3cc(N4CCNCC4)ccc3n2)cc2cn(C)nc12 [Compound 738, 2-(2,7-dimethyl-2H-indazol-5-yl)-7-(piperazin-1-yl)-4H-pyrido[1,2-a]pyrimidin-4-one] | < 0.1 µM | **** (an EC1.5x≤0.3 μM is indicated by four stars (****)) | ***** (a fold increase >1.65 is indicated by five stars (*****)) |
| 228 to 230 °C | Cc1cc(-c2cc(=O)n3cc(C4CCNCC4)ccc3n2)cc2cn(C)nc12 [Compound 739, 2-(2,7-dimethyl-2H-indazol-5-yl)-7-(piperidin-4-yl)-4H-pyrido[1,2-a]pyrimidin-4-one] | < 0.1 µM | **** (an EC1.5x≤0.3 μM is indicated by four stars (****)) | ***** (a fold increase >1.65 is indicated by five stars (*****)) |
| 242 to 244 °C | Cc1cn2nc(-c3cc(=O)n4cc(C#CCN)ccc4n3)cc2c(C)n1 [Compound 740, 7-(3-aminoprop-1-yn-1-yl)-2-(4,6-dimethylpyrazolo[1,5-a]pyrazin-2-yl)-4H-pyrido[1,2-a]pyrimidin-4-one] | 0.3 to 1 µM | *** (an EC1.5× between >0.3 μM and ≤1 μM is indicated by three stars (***)) | ***** (a fold increase >1.65 is indicated by five stars (*****)) |
| 170 to 172 °C | Cc1cc(-c2cc(=O)n3cc(N4CCN[C@H](C)C4)ccc3n2)cc2cn(C)nc12 [Compound 741, 2-(2,7-dimethyl-2H-indazol-5-yl)-7-[(3R)-3-methylpiperazin-1-yl]-4H-pyrido[1,2-a]pyrimidin-4-one] | < 0.1 µM | **** (an EC1.5x≤0.3 μM is indicated by four stars (****)) | ***** (a fold increase >1.65 is indicated by five stars (*****)) |
| 218 to 221 °C | Cc1cn2nc(-c3cc(=O)n4cc(C5=CC(C)(C)NC(C)(C)C5)ccc4n3)cc2c(C)n1 [Compound 744, 2-(4,6-dimethylpyrazolo[1,5-a]pyrazin-2-yl)-7-(2,2,6,6-tetramethyl-1,2,3,6-tetrahydropyridin-4-yl)-4H-pyrido[1,2-a]pyrimidin-4-one] | < 0.1 µM | *** (an EC1.5× between >0.3 μM and ≤1 μM is indicated by three stars (***)) | *** (a fold increase between >1.35 and ≤1.5 is indicated by three stars (***)) |
